Data reported in the supplement of paper PMC10307832.

Key:
Assay in all cases: relative viability (nuclei count vs DMSO), 5 days (fraction); higher = more cells survive
[1] = system: A549
In short: (§1)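 Values are medians from duplicate plates. Each reflects relative viability, defined as the nuclei count of treated wells over that of vehicle wells. Lung cancer cell lines in 1536-well plates were pin-tool dosed one day after seeding with one drug alone or with a fixed anchor-drug dose plus five library-drug doses (not always all listed) in √10 steps, then fixed, stained and imaged at 4× after 5 days.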

[2] = system: NCI-H1703
In short: as §1

[3] = system: HCC-44
In short: as §1

[4] = system: Calu-6
In short: as §1

[5] = system: HCC-78
In short: as §1

[6] = system: NCI-H1563
In short: as §1

[7] = system: IA-LM
In short: as §1

[8] = system: NCI-H2087
In short: as §1

[9] = system: NCI-H1299
In short: as §1

[10] = system: EBC-1
In short: as §1

[11] = system: NCI-H322M
In short: as §1

For Cc1csc(=NC2CCCCC2)n1/N=C/c1ccc(O)c(O)c1O [MIM1] + CS(=O)(=O)N1CCN(Cc2cc3nc(-c4cccc5[nH]ncc45)nc(N4CCOCC4)c3s2)CC1 [Pictilisib] (partner 1 µM), the relative viability ([1]; first compound 0.2 µM) was 0.508, the relative viability ([1]; first compound 0.6325 µM) was 0.565 and the relative viability ([1]; first compound 2 µM) was 0.636. For the same compound, the relative viability ([1]; first compound 6.325 µM) was 0.15, the relative viability ([1]; first compound 20 µM) was 0.0858 and the relative viability ([2]; first compound 0.2 µM) was 0.219. The relative viability ([2]; first compound 0.6325 µM) was 0.304, the relative viability ([2]; first compound 2 µM) was 0.286 and the relative viability ([2]; first compound 6.325 µM) was 0.177. The relative viability ([2]; first compound 20 µM) was 0.182, the relative viability ([3]; first compound 0.2 µM) was 0.811 and the relative viability ([3]; first compound 0.6325 µM) was 0.589. The relative viability ([3]; first compound 2 µM) was 0.61, the relative viability ([3]; first compound 6.325 µM) was 0.356 and the relative viability ([3]; first compound 20 µM) was 0.198. It also gave a relative viability ([4]; first compound 0.2 µM) of 0.909, a relative viability ([4]; first compound 0.6325 µM) of 0.892 and a relative viability ([4]; first compound 2 µM) of 0.942. It also gave a relative viability ([4]; first compound 6.325 µM) of 0.499, a relative viability ([4]; first compound 20 µM) of 0.196 and a relative viability ([5]; first compound 0.2 µM) of 0.251. It also gave a relative viability ([5]; first compound 0.6325 µM) of 0.23, a relative viability ([5]; first compound 2 µM) of 0.228 and a relative viability ([5]; first compound 6.325 µM) of 0.34. The relative viability ([5]; first compound 20 µM) was 0.185, the relative viability ([6]; first compound 0.2 µM) was 0.628 and the relative viability ([6]; first compound 0.6325 µM) was 0.672. For the same compound, the relative viability ([6]; first compound 2 µM) was 0.636, the relative viability ([6]; first compound 6.325 µM) was 0.61 and the relative viability ([6]; first compound 20 µM) was 0.4. The relative viability ([7]; first compound 0.2 µM) was 0.36, the relative viability ([7]; first compound 0.6325 µM) was 0.328 and the relative viability ([7]; first compound 2 µM) was 0.261. For the same compound, the relative viability ([7]; first compound 6.325 µM) was 0.18, the relative viability ([7]; first compound 20 µM) was 0.0832 and the relative viability ([8]; first compound 0.2 µM) was 0.959. It also gave a relative viability ([8]; first compound 0.6325 µM) of 0.588, a relative viability ([8]; first compound 2 µM) of 0.969 and a relative viability ([8]; first compound 6.325 µM) of 0.584. It also gave a relative viability ([8]; first compound 20 µM) of 0.315, a relative viability ([9]; first compound 0.2 µM) of 0.726 and a relative viability ([9]; first compound 0.6325 µM) of 0.791. It also gave a relative viability ([9]; first compound 2 µM) of 0.765, a relative viability ([9]; first compound 6.325 µM) of 0.535 and a relative viability ([9]; first compound 20 µM) of 0.354. The relative viability ([10]; first compound 0.2 µM) was 0.352, the relative viability ([10]; first compound 0.6325 µM) was 0.384 and the relative viability ([10]; first compound 2 µM) was 0.355. The relative viability ([10]; first compound 6.325 µM) was 0.253, the relative viability ([10]; first compound 20 µM) was 0.191 and the relative viability ([11]; first compound 0.2 µM) was 0.565. The relative viability ([11]; first compound 0.6325 µM) was 0.497, the relative viability ([11]; first compound 2 µM) was 0.511 and the relative viability ([11]; first compound 6.325 µM) was 0.477. It also gave a relative viability ([11]; first compound 20 µM) of 0.698.
With Cc1csc(=NC2CCCCC2)n1/N=C/c1ccc(O)c(O)c1O [MIM1] + C[C@@H](Oc1cc(-c2cnn(C3CCNCC3)c2)cnc1N)c1c(Cl)ccc(F)c1Cl [Crizotinib] (partner 1 µM) the relative viability ([1]; first compound 0.2 µM) was 0.709, the relative viability ([1]; first compound 0.6325 µM) was 0.715 and the relative viability ([1]; first compound 2 µM) was 0.762. For the same compound, the relative viability ([1]; first compound 6.325 µM) was 0.402, the relative viability ([1]; first compound 20 µM) was 0.227 and the relative viability ([2]; first compound 0.2 µM) was 0.534. It also gave a relative viability ([2]; first compound 0.6325 µM) of 0.482, a relative viability ([2]; first compound 2 µM) of 0.455 and a relative viability ([2]; first compound 6.325 µM) of 0.175. The relative viability ([2]; first compound 20 µM) was 0.127, the relative viability ([3]; first compound 0.2 µM) was 0.766 and the relative viability ([3]; first compound 0.6325 µM) was 0.74. It also gave a relative viability ([3]; first compound 2 µM) of 0.67, a relative viability ([3]; first compound 6.325 µM) of 0.391 and a relative viability ([3]; first compound 20 µM) of 0.152. For the same compound, the relative viability ([4]; first compound 0.2 µM) was 0.785, the relative viability ([4]; first compound 0.6325 µM) was 0.826 and the relative viability ([4]; first compound 2 µM) was 0.696. For the same compound, the relative viability ([4]; first compound 6.325 µM) was 0.36, the relative viability ([4]; first compound 20 µM) was 0.186 and the relative viability ([5]; first compound 0.2 µM) was 0.322. The relative viability ([5]; first compound 0.6325 µM) was 0.324, the relative viability ([5]; first compound 2 µM) was 0.309 and the relative viability ([5]; first compound 6.325 µM) was 0.318. It also gave a relative viability ([5]; first compound 20 µM) of 0.735, a relative viability ([6]; first compound 0.2 µM) of 1 and a relative viability ([6]; first compound 0.6325 µM) of 0.891. It also gave a relative viability ([6]; first compound 2 µM) of 0.749, a relative viability ([6]; first compound 6.325 µM) of 0.784 and a relative viability ([6]; first compound 20 µM) of 0.577. The relative viability ([7]; first compound 0.2 µM) was 0.697, the relative viability ([7]; first compound 0.6325 µM) was 0.789 and the relative viability ([7]; first compound 2 µM) was 0.773. For the same compound, the relative viability ([7]; first compound 6.325 µM) was 0.443, the relative viability ([7]; first compound 20 µM) was 0.204 and the relative viability ([8]; first compound 0.2 µM) was 0.772. For the same compound, the relative viability ([8]; first compound 0.6325 µM) was 0.934, the relative viability ([8]; first compound 2 µM) was 0.838 and the relative viability ([8]; first compound 6.325 µM) was 0.739. For the same compound, the relative viability ([8]; first compound 20 µM) was 0.766, the relative viability ([9]; first compound 0.2 µM) was 0.857 and the relative viability ([9]; first compound 0.6325 µM) was 0.975. For the same compound, the relative viability ([9]; first compound 2 µM) was 0.975, the relative viability ([9]; first compound 6.325 µM) was 0.966 and the relative viability ([9]; first compound 20 µM) was 0.904. It also gave a relative viability ([10]; first compound 0.2 µM) of 0.207, a relative viability ([10]; first compound 0.6325 µM) of 0.196 and a relative viability ([10]; first compound 2 µM) of 0.195. The relative viability ([10]; first compound 6.325 µM) was 0.196, the relative viability ([10]; first compound 20 µM) was 0.227 and the relative viability ([11]; first compound 0.2 µM) was 0.831. It also gave a relative viability ([11]; first compound 0.6325 µM) of 1.02, a relative viability ([11]; first compound 2 µM) of 0.762 and a relative viability ([11]; first compound 6.325 µM) of 0.808. It also gave a relative viability ([11]; first compound 20 µM) of 0.71.
